Measurements: paper PMC3938723, “Learning from Host-Defense Peptides: Cationic, Amphipathic Peptoids with Potent Anticancer Activity” (PLoS ONE, 2014)
Non-standard residues stand in square brackets, D forms with d. Residues, ends and D or L forms follow the SMILES beside them. Nspe = C[C@H](NCC(=O)O)c1ccccc1; Nphe = O=C(O)CNCc1ccccc1; Nlys = NCCCCNCC(=O)O

Columns and labels:
[1] = system: MRC-5 (fetal lung fibroblast); test: MTS cell viability assay, MRC-5; type: cell-based; conditions: 72 h
Method: (§1) MCF-7, MCF-7/TxT50 and OVCAR-3 (available in ATCC) were kindly provided by Professor Branimir Sikic's lab at Stanford University, and were cultured in McCoy's 5A media (GIBCO) with 10% FBS and antibiotics. Primary dermal fibroblasts were gifts from Lifeline Cell Technology and were cultured <6 passages according to the protocol Lifeline provides. All the cells were cultured in cell incubators (Thermo Scientific) at 37°C with 5% CO2.
(§2) This assay is a colorimetric method for determining the number of viable cells in proliferation. Aliquots of 100 µl media containing 1×10^4 cells were distributed into each well of a 96-well plate (BD Falcon). The following day, when cell density reaches about ∼40% confluency, the cell media were removed and replaced with serial dilutions of peptoid stocks in culturing media. For peptoid dilutions, peptoid stocks were initially diluted in media at 100 µM and then diluted by half in series using a multichannel pipette, and maintained in 100 µl media for each concentration with triple repeats. After peptoid solutions were transferred onto cells in 96-well plates, cells were incubated at 37°C for certain time periods. Then 20 µl of the CellTiter 96 Aqueous Non-Radioactive cell proliferation assay (Promega) reagent which contains a tetrazolium compound, [3-(4,5-dimethylthiazol-2-yl)-5-(3-carboxymethoxyphenyl)-2-(4-sulfophenyl)-2H-tetrazolium, inner salt; MTS(a)], was added to each well and cells were further incubated for 2 h to metabolize. The absorbance of formazan products were measured at 490 nm in a microplate reader (Molecular Devices). Percentage of cell viability = (A -A testblank)/(A control -A blank)×100, where A is the absorbance of the test well and A control the average absorbance of wells with cells not treated with peptoids. A testblank (media, MTS, and diluted peptoids) and A blank (media and MTS) were background absorbances measured in the absence of cells.
(§3) The activity and selectivity of these peptoids against cancer cells were evaluated in vitro. Their cytotoxicity was tested in three cancer cell lines, MCF-7 (human breast cancer), LNCaP (human prostate cancer), and OVCAR-3 (human ovarian cancer). To estimate the selectivity of these peptoids in vitro, hemolytic activities of some peptoids were cited from previously published work (Table 2 **column), and the MRC-5 cell line (human fibroblasts derived from fetal lung tissues) and primary dermal fibroblasts were also tested as normal cell controls. Briefly, cells were treated with peptoids diluted in culturing media for certain time periods, and then cell viability was measured via MTS assays.

[2] = system: OVCAR3 (ovarian cancer); test: MTS cell viability assay, OVCAR3; type: cell-based; conditions: 72 h
Method: as §1, §2, §3

[3] = Analytical RP-HPLC elution as relative measure of molecular hydrophobicity; type: physicochemical; conditions: percentage of acetonitrile at elution, analytic RP-HPLC, C18 column, linear water/acetonitrile (0.1% trifluoroacetic acid) gradient 5%-95% acetonitrile over 30 min
Text: Peptoids were synthesized using an ABI 433A peptide synthesizer (Applied Biosystems, Inc.) on Rink amide MBHA resin (EMD Biosciences, Gibbstown, NJ) using the submonomer protocol, [24]. Briefly, the amine on the nascent chain is bromoacetylated or chloroacetylated followed by SN2 displacement of bromide or chloride by a primary amine to form the side chain. Resin-bound peptoids were then exposed to a mixture of trifluoroacetic acid (TFA): triisopropylsilane: water (95∶2.5∶2.5, volume ratio) for 10 minutes to cleave peptoids from the resin. Crude peptoids were purified by reversed-phase high performance liquid chromatography (RP-HPLC) (Waters Corporation) using a C18 column and a linear acetonitrile/water gradient. A final purity >95% as measured by analytical RP-HPLC (Waters Corporation) was achieved, and the identity of each peptoid was confirmed using electrospray ionization mass spectrometry (ESI/MS). Pexiganan was synthesized by standard Fmoc chemistry on an ABI 433A peptide synthesizer ([…]). Unless indicated otherwise, all reagents were purchased from Sigma Aldrich (St. Louis, MO). Among the submonomers used, Nspe was derived from (S)-N-(1-phenylethyl)amine; Npm from benzylamine ([…]); NHis from histamine (2-[4-imidazolyl]ethylamine); NLeu from isobutylamine; NLys from N-tert-butoxycarbonyl-1,4-butanediamine (CNH Technologies, MA). Guanidinylation of NLys was carried out according to the reported procedure. When NHis was used in the peptoid sequence, chloroacetic acid was used. 5(6)-Carboxyfluorescein was used to label the N-terminus of peptoid 1 [28].
Peptoids were utilized herein as a peptidomimetic scaffold to capture the cationic, amphipathic nature of anticancer peptides, as well as to improve molecular stability and to increase chemical diversity. The design of anticancer peptoids were derived from previous antimicrobial peptoids and were further optimized hererin to improve the activity and selectivity of peptoids against anionic membranes, [24], [25]. […] Several novel variants were designed based on peptoid 1 but with different charges, amphipathicity, length, and helicity to change their activity or selectivity. The sequences of these variants, the solvent composition at RP-HPLC elution as a relative measure of molecular hydrophobicity, molecular net charges and their charge-to-length ratio are summarized in Table 1. […] Pexiganan, a clinically-relevant peptide analog of magainin 2 which was developed for topical treatment for diabetic foot infection, and LL-37, the only known human cathelicidin which is a non-selective antimicrobial peptide, were also tested for comparison.

[4] = system: human red blood cells; conditions: cited from earlier work
Text: Table 2 Peptoid Cytotoxicity in cancer cell lines and control cells. | column: HC10 (µM) ** || The chain length is believed to influence not only the activity but also modes of action of cationic, amphipathic peptides, [34]. […] Thus we limited the chain length of peptoids to 13 residues at most, and studied 1 9mer which has the same charge-to-length ratio (CTLR) as peptoid ...

[5] = system: MCF-7 (breast cancer); test: MTS cell viability assay, MCF-7; type: cell-based; conditions: 72 h
Method: as §1, §2, §3

[6] = system: Primary dermal fibroblast; test: MTS cell viability assay, primary dermal fibroblasts; type: cell-based; conditions: for LC50 Primary dermal fibroblast: 72 h
Method: as §1, §2, §3

[7] = system: LNCaP (prostate cancer); test: MTS cell viability assay, LNCaP; type: cell-based; conditions: 72 h
Method: as §2, §3

[8] = system: MCF-7/TxT50 cells; test: MTS cell viability in multidrug-resistant MCF-7/TxT50 versus MCF-7; type: cell-based, human; conditions: MTS assay, 72 h treatment
Method: as §1
This assay is a colorimetric method for determining the number of viable cells in proliferation. Aliquots of 100 µl media containing 1×10^4 cells were distributed into each well of a 96-well plate (BD Falcon). The following day, when cell density reaches about ∼40% confluency, the cell media were removed and replaced with serial dilutions of peptoid stocks in culturing media. […] The absorbance of formazan products were measured at 490 nm in a microplate reader (Molecular Devices). Percentage of cell viability = (A -A testblank)/(A control -A blank)×100, where A is the absorbance of the test well and A control the average absorbance of wells with cells not treated with peptoids. A testblank (media, MTS, and diluted peptoids) and A blank (media and MTS) were background absorbances measured in the absence of cells. […]
Figure 3 Activity of docetaxel and peptoids in MCF-7 and MCF-7/TxT50 cells. […] Cell viability was measured with MTS assays.

SMILES: C[C@@H](c1ccccc1)N(CC(N)=O)C(=O)CN(C(=O)CN(CCCCN)C(=O)CN(C(=O)CN(C(=O)CN(CCCCN)C(=O)CN(C(=O)CN(C(=O)CNCCCCN)[C@@H](C)c1ccccc1)[C@@H](C)c1ccccc1)[C@@H](C)c1ccccc1)[C@@H](C)c1ccccc1)[C@@H](C)c1ccccc1 [1 9mer, H-(NLys-Nspe-Nspe)3-NH2] (H-[Nlys][Nspe][Nspe][Nlys][Nspe][Nspe][Nlys][Nspe][Nspe]-NH2)
- LC50 MRC-5 (fetal lung fibroblast) [1]: 40 µM
- LC50 OVCAR3 (ovarian cancer) [2]: 34 µM
- HPLC elution [3]: 60 % ACN
- HC10 [4]: 150 µM
- LC50 MCF-7 (breast cancer) [5]: 30 µM
- LC50 Primary dermal fibroblast [6]: 32 µM
- LC50 LNCaP (prostate cancer) [7]: 27 µM

SMILES: NCCCCNCC(=O)N(CC(=O)N(CC(=O)N(CCCCN)CC(=O)N(CC(=O)N(CC(=O)N(CCCCN)CC(=O)N(CC(=O)N(CC(=O)N(CCCCN)CC(=O)N(CC(=O)N(CC(N)=O)Cc1ccccc1)Cc1ccccc1)Cc1ccccc1)Cc1ccccc1)Cc1ccccc1)Cc1ccccc1)Cc1ccccc1)Cc1ccccc1 [1 achiral, H-(NLys-Npm-Npm)4-NH2] (H-[Nlys][Nphe][Nphe][Nlys][Nphe][Nphe][Nlys][Nphe][Nphe][Nlys][Nphe][Nphe]-NH2)
- LC50 MRC-5 (fetal lung fibroblast) [1]: 30 µM
- LC50 OVCAR3 (ovarian cancer) [2]: 16 µM
- HPLC elution [3]: 59.8 % ACN
- HC10 [4]: 183 µM
- LC50 MCF-7 (breast cancer) [5]: 13 µM
- LC50 Primary dermal fibroblast [6]: 39 µM
- selectivity ratio ([6]; LC50 in primary dermal fibroblast divided by LC50 in cancer cells): ~3
- LC50 LNCaP (prostate cancer) [7]: 11 µM

SMILES: C[C@@H](c1ccccc1)N(CC(=O)N(CC(=O)N(CCCCN)CC(=O)N(CC(=O)N(CC(=O)N(CCCCN)CC(=O)N(CC(=O)N(CC(=O)N(CCCCN)CC(=O)N(CC(=O)N(CC(N)=O)Cc1ccccc1)Cc1ccccc1)Cc1ccccc1)Cc1ccccc1)Cc1ccccc1)Cc1ccccc1)Cc1ccccc1)C(=O)CNCCCCN [1 achiral-Nspe2, H-NLys-Nspe-Npm-(NLys-Npm-Npm)3-NH2] (H-[Nlys][Nspe][Nphe][Nlys][Nphe][Nphe][Nlys][Nphe][Nphe][Nlys][Nphe][Nphe]-NH2)
- LC50 MRC-5 (fetal lung fibroblast) [1]: 22 µM
- LC50 OVCAR3 (ovarian cancer) [2]: 16 µM
- HPLC elution [3]: 60.8 % ACN
- HC10 [4]: 160 µM
- LC50 MCF-7 (breast cancer) [5]: 13 µM
- LC50 Primary dermal fibroblast [6]: 36 µM
- LC50 LNCaP (prostate cancer) [7]: 11 µM

SMILES: C[C@@H](c1ccccc1)N(CC(N)=O)C(=O)CN(C(=O)CN(CCCCN)C(=O)CN(Cc1ccccc1)C(=O)CN(Cc1ccccc1)C(=O)CN(CCCCN)C(=O)CN(C(=O)CN(C(=O)CN(CCCCN)C(=O)CN(Cc1ccccc1)C(=O)CN(Cc1ccccc1)C(=O)CNCCCCN)[C@@H](C)c1ccccc1)[C@@H](C)c1ccccc1)[C@@H](C)c1ccccc1 [1-Npm2,3,8,9, H-(NLys-Npm-Npm-NLys-Nspe-Nspe)2-NH2]
- LC50 MRC-5 (fetal lung fibroblast) [1]: 18 µM
- LC50 OVCAR3 (ovarian cancer) [2]: 11 µM
- HPLC elution [3]: 63.3 % ACN
- HC10 [4]: 80 µM
- LC50 MCF-7 (breast cancer) [5]: 9 µM
- LC50 Primary dermal fibroblast [6]: 21 µM
- LC50 LNCaP (prostate cancer) [7]: 10 µM

SMILES: CC(=O)O[C@@]12CO[C@@H]1C[C@H](O)[C@@]1(C)C(=O)[C@H](O)C3=C(C)[C@@H](OC(=O)[C@H](O)[C@@H](NC(=O)OC(C)(C)C)c4ccccc4)C[C@@](O)([C@@H](OC(=O)c4ccccc4)[C@H]21)C3(C)C [Docetaxel]
- activity in MCF-7/TxT50 (MDR1 overexpressing) compared to wild-type MCF-7 [8]: resistant

SMILES: C[C@@H](c1ccccc1)N(CC(N)=O)C(=O)CN(CCCCN)C(=O)CN(C(=O)CN(C(=O)CN(CCCCN)C(=O)CN(C(=O)CN(C(=O)CN(CCCCN)C(=O)CN(C(=O)CN(C(=O)CNCCCCN)[C@@H](C)c1ccccc1)[C@@H](C)c1ccccc1)[C@@H](C)c1ccccc1)[C@@H](C)c1ccccc1)[C@@H](C)c1ccccc1)[C@@H](C)c1ccccc1 [1 11mer, H-(NLys-Nspe-Nspe)3-NLys-Nspe-NH2] (H-[Nlys][Nspe][Nspe][Nlys][Nspe][Nspe][Nlys][Nspe][Nspe][Nlys][Nspe]-NH2)
- LC50 MRC-5 (fetal lung fibroblast) [1]: 24 µM
- LC50 OVCAR3 (ovarian cancer) [2]: 10 µM
- HPLC elution [3]: 63.5 % ACN
- HC10 [4]: 103 µM
- LC50 MCF-7 (breast cancer) [5]: 11 µM
- LC50 Primary dermal fibroblast [6]: 19 µM
- LC50 LNCaP (prostate cancer) [7]: 10 µM
